The values below come from patent US20170369529A1, “CELL PENETRATING PEPTIDES” (Hoffmann-La Roche Inc., priority 2014, published 2017).

Positions of bridges follow the written chain, without caps; N, C: chain ends. Non-standard residues stand in square brackets, D forms with d. Nle = CCCC[C@H](N)C(=O)O; AEEA = NCCOCCOCC(=O)O; Fluo = fluorescein

Common to all, as to assay type: cell-based
The subject of one assay is HeLa cells. Briefly: Cell penetration (cellular uptake by confocal microscopy) in HeLa cells. As to conditions: 2 μM CPP; for localization of fluorescence in HeLa cells / penetration of HeLa cells (in words): confocal microscopy; for penetration of HeLa cells (in words): intracellular signal; for cell penetration, HeLa(t2 h): t 2 h. How it is done: (§1) The peptides of the invention were tested for cell penetration in HeLa and HEK293T cell lines.
(§2) Materials: The HeLa (DSMZ) and HEK293T cells were maintained in growth media and then passaged every 2-3 days. Growth media for HeLa cells was RPMI 1640, 10% fetal calf serum, MEM-non-essential amino acids, sodium pyruvate and L-glutamine (GIBCO). Growth media for HEK293T DMEM was supplemented with 10% fetal calf serum, MEM-non-essential amino acids, sodium pyruvate and glutamine (all GIBCO).
(§3) Methods and Procedures: Cells were plated onto μ-slide 8 well chambered coverslips (IBIDI) with ibidi standard-bottom and cultured overnight. Peptide stocks were prepared in MillQ and were diluted in cell growth media for cellular uptake studies. Cells were carefully washed with culture medium without fetal calf serum, incubated with 2 μM CPP concentration in absence of fetal calf serum and analyzed by confocal microscopy regarding uptake efficiency and localization over 2 h at 37° C. Finally, trypan blue (0.4% end concentration) was administered to quench cell surface fluorescence followed by an endpoint imaging step. Plates were imaged with an excitation at 488 nm and detection of fluorescence over 500-550 nm (fluorescein) using a TCS SP5 confocal microscope (Leica 174 Microsystems, Mannheim, Germany) equipped with an HCX PL APO 175 63×N.A. 1.2 water immersion lens and a temperature-controlled microscope stage.

The subject of a further assay is Jurkat. Kind of assay: Cell penetration (cellular uptake by confocal microscopy) in Jurkat cells. As to conditions: t 2 h, 2 μM CPP, no fetal calf serum, 37° C., fluorescein fluorescence. The procedure:
as §3

A further assay relates to HEK293T cells. Briefly: Cell penetration (cellular uptake by confocal microscopy) in HEK293T cells. As to conditions: 2 μM CPP; for cell penetration, HEK293T (t2 h): t 2 h, no fetal calf serum, 37° C., fluorescein fluorescence. How it is done:
as §1, §2, §3

Where [1] appears, read: no fetal calf serum, 37° C., fluorescein fluorescence.

As to “Fluo-Phe-Ile-cyclo(Asp-Ile-Ile-Ile-Lys)-Ile-Leu-Leu-Ile-Gly-Ser-Thr-Ser-Arg-Asp-His-Nle-Val-Leu-His-Glu-Tyr-Val-Asn-Ala-Ala-Gly-Ile-Thr-Ado-NH2 (Fluo-FIDIIIKILLIGSTSRDH[Nle]VLHEYVNAAGIT-{AEEA-NH2}; lactam 3-7) [Example 7]”, in the assay with HeLa cells, the “localization of fluorescence in HeLa cells” value is “localized in endosomes” and the “penetration of HeLa cells (in words)” value is listed as “high”. Further, in the assay with HeLa cells (setting [1]), the “cell penetration, HeLa(t2 h)” value was 0.28. The “cell penetration, Jurkat (t2 h)” value with Jurkat came out at 1.35. For the same substance, in the assay with HEK293T cells (confocal microscopy), the “localization of fluorescence in HEK293T cells” value was “pronounced cytosolic and partly endosomal fluorescence”. In addition, the “cell penetration, HEK293T (t2 h)” value in the assay with HEK293T cells worked out at 0.28.

For the substance “Fluo-cyclo(Lys-Ile-Ile-Ile-Ile-Asp)-Gly-Ser-Thr-Ser-Arg-Asp-His-Nle-Val-Leu-His-Glu-Tyr-Val-Asn-Ala-Ala-Gly-Ile-Thr-Ado-NH2 (Fluo-KIIIIDGSTSRDH[Nle]VLHEYVNAAGIT-{AEEA-NH2}; lactam 1-6) [Example 2]”, the “penetration of HeLa cells (in words)” value in the assay on HeLa cells is recorded as “low intracellular signals”. The “cell penetration, HeLa(t2 h)” value in the assay with HeLa cells (setting [1]) was found to be 0.18. Besides, the “cell penetration, Jurkat (t2 h)” value with Jurkat was determined as 0.9. For the same substance, in the assay on HEK293T cells, the “cell penetration, HEK293T (t2 h)” value turned out to be 0.23.

With “Fluo-(D-Met)-Ile-(D-Ile)-Leu-Ile-Ile-Gly-Ser-Thr-Ser-Arg-Asp-His-Nle-Val-Leu-His-Glu-Tyr-Val-Asn-Ala-Ala-Gly-Ile-Thr-Ado-NH2 (Fluo-[dM]I[dI]LIIGSTSRDH[Nle]VLHEYVNAAGIT-{AEEA-NH2}) [Example 5]”, in the assay on HeLa cells, the “penetration of HeLa cells (in words)” value was “low intracellular signals”. For the same substance, the “cell penetration, HeLa(t2 h)” value in the assay with HeLa cells (setting [1]) turned out to be 0.22. Moreover, the “cell penetration, Jurkat (t2 h)” value in the assay on Jurkat is given as 0.18. Moreover, in the assay with HEK293T cells, the “cell penetration, HEK293T (t2 h)” value was determined as 0.5.

As to “Fluo-Met-Ile-Ile-Leu-Ile-Ile-Met-Gly-Val-Ala-Asp-Leu-Ile-Lys-Lys-Phe-Glu-Ser-Ile-Ser-Lys-Glu-Glu-NH2 [Example 6]”, in the assay on HeLa cells, the “penetration of HeLa cells (in words)” value is recorded as “low intracellular signals”. Moreover, the “cell penetration, HeLa(t2 h)” value in the assay on HeLa cells (setting [1]) was found to be 0.14. The “cell penetration, Jurkat (t2 h)” value in the assay on Jurkat came out at 0.44. Moreover, the “cell penetration, HEK293T (t2 h)” value with HEK293T cells is 0.08.

Take “Fluo-Met-Ile-Ile-Leu-Ile-Ile-Gly-Ser-Thr-Ser-Arg-Asp-His-Met-Val-Leu-His-Glu-Tyr-Val-Asn-Ala-Ala-Gly-Ile-Thr-NH2 (fluorescein-MIILIIGSTSRDHMVLHEYVNAAGIT-NH2) [Example 1]”: in the assay on HeLa cells, the “localization of fluorescence in HeLa cells” value was “localized in endosomes and cytosol”; the “penetration of HeLa cells (in words)” value was “high”. The “cell penetration, HeLa (t30 min)” value in the assay on HeLa cells (t 30 min, no fetal calf serum, 37° C., fluorescein fluorescence) was 0.13. The “cell penetration, HeLa(t2 h)” value in the assay with HeLa cells (setting [1]) came to 0.11.

With “Fluo-cyclo(Lys-Nle-Ile-Ile-Leu-Ile-Ile-Asp)-Gly-Ser-Thr-Ser-Arg-Asp-His-Nle-Val-Leu-His-Glu-Tyr-Val-Asn-Ala-Ala-Gly-Ile-Thr-Ado-NH2 (Fluo-K[Nle]IILIIDGSTSRDH[Nle]VLHEYVNAAGIT-{AEEA-NH2}; lactam 1-8) [Example 3]”, in the assay on HeLa cells, the “penetration of HeLa cells (in words)” value was “low intracellular signals”. Also, in the assay on HeLa cells (setting [1]), the “cell penetration, HeLa(t2 h)” value is listed as 0.28. For the same substance, the “cell penetration, Jurkat (t2 h)” value with Jurkat is 0.77. In the assay with HEK293T cells, the “cell penetration, HEK293T (t2 h)” value is on record as 0.35.

As for “Fluo-Nle-Ile-Ile-Leu-Ile-Ile-Gly-Ser-Thr-Ser-Arg-Asp-His-Nle-Val-Leu-His-Glu-Tyr-Val-Asn-Ala-Ala-Gly-Ile-Thr-Ado-NH2 (Fluo-[Nle]IILIIGSTSRDH[Nle]VLHEYVNAAGIT-{AEEA-NH2}) [Example 4]”, in the assay with HeLa cells (setting [1]), the “cell penetration, HeLa(t2 h)” value came out at 0.12. Also, the “cell penetration, Jurkat (t2 h)” value in the assay on Jurkat came out at 0.85. In addition, the “cell penetration, HEK293T (t2 h)” value in the assay with HEK293T cells was 0.16.
